Data set [1] concerns the target T1, cytochrome P450 3A4 isoform (Homo sapiens, UniProt P08684).
T1 construct: pre-incubated with human liver microsomes and NADPH; from tissue; host or cells: human liver microsomes
The data set is described as follows: Cytochrome P450 inhibition assay (midazolam hydroxylation). It counts as in vitro ADME. The note with it: 10 μM test compound, midazolam at approximately its Km, human liver microsomes. In outline: (§1)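 Human liver microsomes; CYP3A4 activity as midazolam 1′-hydroxylation with substrate near Km, with or without 10 μM test compound, read as percent inhibition. For time-dependent inhibition, parallel samples were preincubated 30 min with NADPH before substrate, and percent inhibition compared with non-preincubated samples.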

The next data set deals with T2, OX1 (Homo sapiens, UniProt O43613).
T2 construct: expressed in transfected cells; host or cells: CHO (CHO-OX1, kept under selection antibiotic)
T2 sequence (O43613 1-425): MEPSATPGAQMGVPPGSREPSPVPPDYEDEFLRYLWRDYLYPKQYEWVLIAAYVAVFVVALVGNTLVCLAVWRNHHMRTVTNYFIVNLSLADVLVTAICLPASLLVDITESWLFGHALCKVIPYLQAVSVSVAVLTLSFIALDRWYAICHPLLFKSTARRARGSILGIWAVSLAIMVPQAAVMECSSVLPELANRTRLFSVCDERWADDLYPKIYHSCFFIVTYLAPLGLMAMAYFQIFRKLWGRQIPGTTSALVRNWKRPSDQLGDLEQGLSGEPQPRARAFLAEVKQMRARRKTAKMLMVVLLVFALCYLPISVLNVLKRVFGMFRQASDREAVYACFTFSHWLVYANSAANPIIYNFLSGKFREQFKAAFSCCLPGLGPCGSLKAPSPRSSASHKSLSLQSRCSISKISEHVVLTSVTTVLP
The data set is described as follows: Orexin receptor cell-based functional assay, [Ca2+]i by FLIPR, CHO-OX1 cells. The note with it: CHO-OX1 cells, [Ca2+]i by FLIPR, antagonist dose-range 0.1 nM-10 μM, EC90 of OXA; read-out: OX1. Summed up:
(§2)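 CHO cells expressing human OX1 or OX2 loaded with calcium dye plus 2.5 mM probenecid at 37° C (calcium4, 30 min, or calcium6, 2 h), then exposed to compounds (0.1 nM-10 μM) for 30 min. Intracellular Ca2+ measured on FLIPR; antagonist format.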

A further data set concerns the target T3, CYP3A4 (Homo sapiens, UniProt P08684).
T3 construct: pre-incubated with human liver microsomes and NADPH; from tissue; host or cells: human liver microsomes
The data set is described as follows: Cytochrome P450 inhibition assay (midazolam hydroxylation). It counts as in vitro ADME. The note with it: human, human liver microsomes, probe midazolam (hydroxylation to 1′-hydroxymidazolam), 10 μM test compound, midazolam at approximately its Km. In outline:
as §1
Background: Liver microsomes are vesicles of endoplasmic reticulum, rich in cytochrome P450 enzymes.

Another data set has as its target T4, OX2 (Homo sapiens, UniProt O43614).
T4 construct: expressed in transfected cells; host or cells: CHO (CHO-OX2, kept under selection antibiotic)
T4 sequence (O43614 1-444): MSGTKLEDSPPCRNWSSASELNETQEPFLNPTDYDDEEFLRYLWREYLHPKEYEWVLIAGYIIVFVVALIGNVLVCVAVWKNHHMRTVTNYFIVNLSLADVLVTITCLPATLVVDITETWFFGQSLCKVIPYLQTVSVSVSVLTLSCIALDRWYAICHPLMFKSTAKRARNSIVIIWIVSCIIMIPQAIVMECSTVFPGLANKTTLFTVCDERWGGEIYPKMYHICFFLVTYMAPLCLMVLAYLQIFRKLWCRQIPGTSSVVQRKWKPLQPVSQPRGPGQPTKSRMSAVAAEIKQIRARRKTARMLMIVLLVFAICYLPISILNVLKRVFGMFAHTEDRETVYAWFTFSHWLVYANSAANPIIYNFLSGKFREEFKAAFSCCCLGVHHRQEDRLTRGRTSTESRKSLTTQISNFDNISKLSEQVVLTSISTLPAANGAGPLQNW
In words: Orexin receptor cell-based functional assay, [Ca2+]i by FLIPR, CHO-OX2 cells. The note with it: [Ca2+]i by FLIPR, antagonist dose-range 0.1 nM-10 μM, EC90 of OXA, read-out: OX2. In outline:
as §2

SMILES strings stand for the structures. Bounds are passed on as bounds.

T3 sequence (P08684 whole entry): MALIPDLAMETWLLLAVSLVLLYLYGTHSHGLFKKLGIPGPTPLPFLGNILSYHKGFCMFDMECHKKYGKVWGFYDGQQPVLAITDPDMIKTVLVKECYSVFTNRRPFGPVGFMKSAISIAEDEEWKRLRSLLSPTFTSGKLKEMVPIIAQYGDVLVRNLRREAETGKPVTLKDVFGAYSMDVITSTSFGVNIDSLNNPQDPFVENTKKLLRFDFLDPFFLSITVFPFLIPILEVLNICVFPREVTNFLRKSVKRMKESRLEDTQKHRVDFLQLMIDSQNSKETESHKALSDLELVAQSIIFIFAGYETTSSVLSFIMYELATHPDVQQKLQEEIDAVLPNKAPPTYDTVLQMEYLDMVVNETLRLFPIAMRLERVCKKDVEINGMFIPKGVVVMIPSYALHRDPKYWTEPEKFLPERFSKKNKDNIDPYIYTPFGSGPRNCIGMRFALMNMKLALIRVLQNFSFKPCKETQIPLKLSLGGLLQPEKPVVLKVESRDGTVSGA
T1 sequence (P08684 whole entry, canonical isoform): as the sequence (P08684 whole entry) above

With `C[C@@H]1CCCN(C(=O)c2cccc(F)c2-c2ncccn2)[C@@H]1CNc1ncc(C(F)(F)F)cn1` [Example A230, (3-Fluoro-2-(pyrimidin-2-yl)phenyl)((2S,3R)-3-methyl-2-(((5-(trifluoromethyl)pyrimidin-2-yl)amino)methyl)piperidin-1-yl)methanone], the “% CYP3A4 Inhibition” value in data set [1] turned out to be 50%. Also, the IC50 on OX1 amounted to 5 nM.
For the compound `Cc1nc(C(=O)N2CCC[C@@H](C)[C@H]2CNc2nc3cc(Cl)ccc3o2)c(-c2ccc(F)cc2)s1` [Example A84, ((2S,3R)-2-(((5-Chlorobenzo[d]oxazol-2-yl)amino)methyl)-3-methylpiperidin-1-yl)(5-(4-fluorophenyl)-2-methylthiazol-4-yl)methanone], the “% CYP3A4 Inhibition” value in data set [1] (10 µM) amounted to 50%.
On the same count and under the same terms, to `Cc1ccc(-n2nccn2)c(C(=O)N2CCC[C@@H](C)[C@H]2CNc2ncc(F)cc2F)c1` [Example A91, ((2S,3R)-2-(((3,5-Difluoropyridin-2-yl)amino)methyl)-3-methylpiperidin-1-yl)(5-methyl-2-(2H-1,2,3-triazol-2-yl)phenyl)methanone] belongs 58%; to `Cc1nc(C(=O)N2CCC[C@@H](C)[C@H]2CNc2nc3cc(Cl)ccc3o2)c(-c2ccc(F)cc2)s1` [Example A13, ((2S,3R)-2-(((5-Chlorobenzo[d]oxazol-2-yl)amino)methyl)-3-methylpiperidin-1-yl)(5-(4-fluorophenyl)-2-methylthiazol-4-yl)methanone], 83%.
Regarding `Cc1c(F)ccc(C(=O)N2CCC[C@@H](C)[C@H]2CNc2ncc(C(F)(F)F)cn2)c1-n1nccn1` [Example A345, (4-fluoro-3-methyl-2-(2H-1,2,3-triazol-2-yl)phenyl)((2S,3R)-3-methyl-2-(((5-(trifluoromethyl)pyrimidin-2-yl)amino)methyl)piperidin-1-yl)methanone], at CYP3A4, the inhibition – broadly, how much of the control response was suppressed – at 10 µM turned out to be 60%. Also, the IC50 is 1 nM at OX1 and more than 5000 nM at OX2.
In the case of `Cc1ccc(-n2nccn2)c(C(=O)N2CCC[C@@H](C)[C@H]2CNc2ncc(Cl)cc2F)c1` [Example A92, ((2S,3R)-2-(((5-Chloro-3-fluoropyridin-2-yl)amino)methyl)-3-methylpiperidin-1-yl)(5-methyl-2-(2H-1,2,3-triazol-2-yl)phenyl)methanone], in data set [1] (10 µM), the “% CYP3A4 Inhibition” value is recorded as 91%.
As to `C[C@@H]1CCCN(C(=O)c2c(F)ccc(F)c2-n2nccn2)[C@@H]1CNc1ncc(C(F)(F)F)cn1` [Example A333, (3,6-difluoro-2-(2H-1,2,3-triazol-2-yl)phenyl)((2S,3R)-3-methyl-2-(((5-(trifluoromethyl)pyrimidin-2-yl)amino)methyl)piperidin-1-yl)methanone], testing at 10 µM against CYP3A4 gave an inhibition of 38%. Moreover, the IC50 at OX1 was 15 nM; at OX2, more than 5000 nM.
The compound `Cc1ccc(-n2nccn2)c(C(=O)N2CCC[C@@H](C)[C@H]2CNc2ncc(Cl)cc2F)n1` [Example A192, ((2S,3R)-2-(((5-Chloro-3-fluoropyridin-2-yl)amino)methyl)-3-methylpiperidin-1-yl)(6-methyl-3-(2H-1,2,3-triazol-2-yl)pyridin-2-yl)methanone] gave an inhibition at 10 µM on CYP3A4 of 51%. Also, the IC50 is 10 nM at OX1 and more than 5000 nM at OX2.
Taken in the same sequence, the figures for `Cc1cc(C(=O)N2CCC[C@@H](C)[C@H]2CNc2ncc(C(F)(F)F)cn2)c(-n2nccn2)cc1F` [Example A369, (4-fluoro-5-methyl-2-(2H-1,2,3-triazol-2-yl)phenyl)((2S,3R)-3-methyl-2-(((5-(trifluoromethyl)pyrimidin-2-yl)amino)methyl)piperidin-1-yl)methanone] were 60%, 4 nM and 3000 nM.
Take `Cc1ccc(C(=O)N2CCC[C@@H](C)[C@H]2CNc2ccc(C(F)(F)F)cn2)c(-n2nccn2)c1F` [Example A356, (3-Fluoro-4-methyl-2-(2H-1,2,3-triazol-2-yl)phenyl)((2S,3R)-3-methyl-2-(((5-(trifluoromethyl)pyridin-2-yl)amino)methyl)piperidin-1-yl)methanone]: the inhibition at 10 µM against CYP3A4 turned out to be 86%. Also, the IC50 was 2 nM at OX1 and 3900 nM on OX2.
Taken in the same sequence, the figures for `Cc1cc(F)cc(C(=O)N2CCC[C@@H](C)[C@H]2CNc2ncc(C(F)(F)F)cn2)c1-n1nccn1` [Example A349, (5-fluoro-3-methyl-2-(2H-1,2,3-triazol-2-yl)phenyl)((2S,3R)-3-methyl-2-(((5-(trifluoromethyl)pyrimidin-2-yl)amino)methyl)piperidin-1-yl)methanone] were 59%, 2 nM and more than 1000 nM.
For `Cc1ccc(C(=O)N2CCC[C@@H](C)[C@H]2CNc2ncc(C(F)(F)F)cn2)c(-n2nccn2)c1F` [Example A357, (3-fluoro-4-methyl-2-(2H-1,2,3-triazol-2-yl)phenyl)((2S,3R)-3-methyl-2-(((5-(trifluoromethyl)pyrimidin-2-yl)amino)methyl)piperidin-1-yl)methanone], in that order: 83%, 5 nM and more than 5000 nM.
Compound `C[C@@H]1CCCN(C(=O)c2c(F)ccc(F)c2-c2ncccn2)[C@@H]1CNc1ncc(C(F)(F)F)cn1` [Example A335, (3,6-difluoro-2-(pyrimidin-2-yl)phenyl)((2S,3R)-3-methyl-2-(((5-(trifluoromethyl)pyrimidin-2-yl)amino)methyl)piperidin-1-yl)methanone] showed an inhibition at 10 µM at CYP3A4 of 44%. The IC50 at OX1 is 4 nM; at OX2, more than 5000 nM.
For `Cc1cc(F)cc(C(=O)N2CCC[C@@H](C)[C@H]2CNc2ccc(C(F)(F)F)cn2)c1-n1nccn1` [Example A348, (5-fluoro-3-methyl-2-(2H-1,2,3-triazol-2-yl)phenyl)((2S,3R)-3-methyl-2-(((5-(trifluoromethyl)pyridin-2-yl)amino)methyl)piperidin-1-yl)methanone], in that order: 77%, 2 nM and more than 4000 nM.
For `Cc1cc(F)c(-c2ncccn2)c(C(=O)N2CCC[C@@H](C)[C@H]2CNc2ncc(C(F)(F)F)cn2)c1` [Example A375, (3-fluoro-5-methyl-2-(pyrimidin-2-yl)phenyl)((2S,3R)-3-methyl-2-(((5-(trifluoromethyl)pyrimidin-2-yl)amino)methyl)piperidin-1-yl)methanone], in that order: 48%, 8 nM and 170 nM.
For `Cc1c(F)ccc(C(=O)N2CCC[C@@H](C)[C@H]2CNc2ccc(C(F)(F)F)cn2)c1-n1nccn1` [Example A344, (4-Fluoro-3-methyl-2-(2H-1,2,3-triazol-2-yl)phenyl)((2S,3R)-3-methyl-2-(((5-(trifluoromethyl)pyridin-2-yl)amino)methyl)piperidin-1-yl)methanone], in that order: 75%, 2 nM and 2800 nM.
Take `C[C@@H]1CCCN(C(=O)c2ccc(F)c(F)c2-n2nccn2)[C@@H]1CNc1ccc(C(F)(F)F)cn1` [Example A324, (3,4-Difluoro-2-(2H-1,2,3-triazol-2-yl)phenyl)((2S,3R)-3-methyl-2-(((5-(trifluoromethyl)pyridin-2-yl)amino)methyl)piperidin-1-yl)methanone]: on CYP3A4, at 10 µM the inhibition was 87%. The IC50 was found to be 1 nM on OX1 and 490 nM at OX2.

These data come from patent US9440982B2 (Eolas Therapeutics, Inc., priority 2012, dated 2016).
